# Experimental data published in US20250179059A1 (The Regents of the University of California, priority 2021, published 2025).
# Where two headings read alike, the source gives them in different places.
# Columns and labels:
# [1] = tested on: human SKM-1 acute myeloid leukemia cells; test: SKM-1 antiproliferation cell-based assay (ATPlite); settings: Homo sapiens
# Method in brief: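 Log-phase cells in RPMI 1640/15% FBS were seeded at 34722 cells/mL and exposed for 4 days to nine-concentration DMSO serial dilutions in triplicate. Viability was read as ATP luminescence (ATPlite 1step), and IC50 values came from variable-slope non-linear regression.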
# [2] = target: T1, human BRD4 bromodomain II (Homo sapiens, UniProt O60885); test: Bromodomain binding assay (AlphaScreen), BRD4 BDII
# T1 construct: human BRD4 bromodomain II [based on Genbank NM_058243, residues 349-460]; host or cells: E. coli
# Method in brief: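 Tagged BRD4 BDI or BDII constructs, expressed in E. coli, competed against a K5/K8/K12/K16-acetylated biotin-H4 peptide. Proximity signal between bead pairs after room-temperature incubations gave concentration-response curves, from which IC50 was derived.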
# [3] = SKM-1, 96 h, SKM-1 antiproliferation assay, 4 days, Table C2
# [4] = AlphaScreen assay, Table C2, read-out: BRD4 BDII IC50
# [5] = SKM-1, SKM-1 antiproliferation assay
# [6] = BRD4 BDII AlphaScreen assay, read-out: BRD4 BD2 IC50
"GI50 [1, 3] [nM]","IC50 [2, 4] [nM]","GI50 [1, 5] [nM]","IC50 [2, 6] [nM]",Structure (SMILES)
30 to 300,1 to 10,–,–,"CN1CCN(c2ccc(-c3cccc(-c4ccnc(N5CCC(N)CC5)c4)c3O)cc2Cl)C1=O [Example 300, 1-(3′-(2-(4-aminopiperidin-1-yl)pyridin-4-yl)-3-chloro-2′-hydroxy-[1,1′-biphenyl]-4-yl)-3-methylimidazolidin-2-one]"
300 to 3000,1 to 10,–,–,"CC(=O)Nc1ccc(-c2cccc(-c3ccnc(N4CC5(CNC5)C4)c3)c2O)cc1F [Example 270, N-(3′-(2-(2,6-diazaspiro[3.3]heptan-2-yl)pyridin-4-yl)-3-fluoro-2′-hydroxy-[1,1′-biphenyl]-4-yl)acetamide]"
0.3 to 30,0.01 to 1,–,–,"CN1CCC12CCN(c1cc(-c3cc(F)cc(-c4ccc(-n5ccn(C)c5=O)c(Cl)c4)c3O)ccn1)C2 (stereo not drawn) [Example 642, 1-(3-chloro-5′-fluoro-2′-hydroxy-3′-(2-(1-methyl-1,6-diazaspiro[3.4]octan-6-yl)pyridin-4-yl)-[1,1′-biphenyl]-4-yl)-3-methyl-1H-imidazol-2(3H)-one]"
0.3 to 30,0.01 to 1,–,–,"Cc1cc(-c2ccnc(N3CCNCC3)c2)c(O)c(-c2ccc(-n3ccn(C)c3=O)c(Cl)c2)c1 [Example 420, 1-(3-chloro-2′-hydroxy-5′-methyl-3′-(2-(piperazin-1-yl)pyridin-4-yl)-[1,1′-biphenyl]-4-yl)-3-methyl-1H-imidazol-2(3H)-one]"
0.3 to 30,0.01 to 1,–,–,"C[C@@H]1CN(c2cc(-c3cc(F)cc(-c4ccc(-n5ccn(C)c5=O)c(Cl)c4)c3O)cc3c2nnn3C)CCN1 [Example 605, (R)-1-(3-chloro-5′-fluoro-2′-hydroxy-3′-(1-methyl-4-(3-methylpiperazin-1-yl)-1H-benzo[d][1,2,3]triazol-6-yl)-[1,1′-biphenyl]-4-yl)-3-methyl-1H-imidazol-2(3H)-one]"
0.3 to 30,0.01 to 1,–,–,"Cn1ccn(-c2ccc(-c3cc(F)cc(-c4ccnc(N5CC(N)C6(CC6)C5)c4)c3O)cc2Cl)c1=O (stereo not drawn) [Example 755, 1-(3′-(2-(7-amino-5-azaspiro[2.4]heptan-5-yl)pyridin-4-yl)-3-chloro-5′-fluoro-2′-hydroxy-[1,1′-biphenyl]-4-yl)-3-methyl-1H-imidazol-2(3H)-one]"
30 to 300,1 to 10,–,–,"CC(=O)Nc1ccc(-c2cccc(-c3ccnc(N4CC[C@H](N)C4)c3)c2O)cc1F [Example 248, (S)-N-(3′-(2-(3-aminopyrrolidin-1-yl)pyridin-4-yl)-3-fluoro-2′-hydroxy-[1,1′-biphenyl]-4-yl)acetamide]"
0.3 to 30,1 to 10,–,–,"COCC(C)(C)N1CCN(c2cccc(-c3cc(F)cc(-c4ccc(-n5ccn(C)c5=O)c(Cl)c4)c3O)c2)CC1 [Example 830, 1-(3-chloro-5′-fluoro-2′-hydroxy-3″-(4-(1-methoxy-2-methylpropan-2-yl)piperazin-1-yl)-[1,1′:3′,1″-terphenyl]-4-yl)-3-methyl-1H-imidazol-2(3H)-one]"
300 to 3000,1 to 10,–,–,"CC(=O)Nc1ccc(-c2cccc(-c3ccc(F)c(N4CCNCC4)c3)c2O)cc1F [Example 182, N-(3,4″-difluoro-2′-hydroxy-3(piperazin-1-yl)-[1,1′:3′,1″-terphenyl]-4-yl)acetamide]"
30 to 300,0.01 to 1,–,–,"Cn1ccn(-c2ccc(-c3cc(F)cc(-c4cnnc(N5CC[C@](C)(O)C5)c4)c3O)cc2Cl)c1=O [Example 837, (S)-1-(3-chloro-5′-fluoro-2′-hydroxy-3′-(6-(3-hydroxy-3-methylpyrrolidin-1-yl)pyridazin-4-yl)-[1,1′-biphenyl]-4-yl)-3-methyl-1H-imidazol-2(3H)-one]"
–,–,0.3 to 30,0.01 to 1,"Cc1cc(-c2cccc(N3CCN(C(C)(C)C)CC3)c2)c(O)c(-c2ccc(-n3ccn(C)c3=O)c(Cl)c2)c1 [Example 1016, 1-(3″-(4-(tert-butyl)piperazin-1-yl)-3-chloro-2′-hydroxy-5′-methyl-[1,1′:3′,1″-terphenyl]-4-yl)-3-methyl-1H-imidazol-2(3H)-one]"
–,–,0.3 to 30,1 to 10,"CNc1ncc(-c2nccc(-c3ccc(-n4ccn(C)c4=O)c(Cl)c3)c2O)cc1N1CCN(C(C)(C)C)CC1 [Example 986, 1-(4-(5′-(4-(tert-butyl)piperazin-1-yl)-3-hydroxy-6′-(methylamino)-[2,3′-bipyridin]-4-yl)-2-chlorophenyl)-3-methyl-1H-imidazol-2(3H)-one]"
0.3 to 30,0.01 to 1,–,–,"Cn1ccn(-c2ccc(-c3cc(F)cc(-c4cncc(N5CC[C@](C)(O)C5)c4)c3O)cc2Cl)c1=O [Example 729, (S)-1-(3-chloro-5′-fluoro-2′-hydroxy-3′-(5-(3-hydroxy-3-methylpyrrolidin-1-yl)pyridin-3-yl)-[1,1′-biphenyl]-4-yl)-3-methyl-1H-imidazol-2(3H)-one]"
–,–,300 to 3000,> 100,CC(=O)Nc1cccc(-c2cc(F)cc(-c3cccc(N4CCC(C)(O)C4)c3)c2O)c1Cl (stereo not drawn) [Example 893]
30 to 300,1 to 10,–,–,"CC(=O)Nc1ccc(-c2cc(F)cc(-c3ccnc(N4CCNCC4)c3)c2O)cc1F [Example 224, N-(3,5′-difluoro-2′-hydroxy-3′-(2-(piperazin-1-yl)pyridin-4-yl)-[1,1′-biphenyl]-4-yl)acetamide]"
30 to 300,1 to 10,–,–,"Cc1cc(-c2cccc(-c3ccc(N4CCN(C)C4=O)c(Cl)c3)c2O)cc(N2CCNCC2)n1 [Example 338, 1-(3-chloro-2′-hydroxy-3′-(2-methyl-6-(piperazin-1-yl)pyridin-4-yl)-[1,1′-biphenyl]-4-yl)-3-methylimidazolidin-2-one]"
300 to 3000,10 to 100,–,–,"CC(=O)Nc1ccc(-c2cccc(-c3cc(OCCN)nc(N4CCNCC4)c3)c2O)cc1F [Example 302, N-(3′-(2-(2-aminoethoxy)-6-(piperazin-l-yl)pyridin-4-yl)-3-fluoro-2′-hydroxy-[1,1′-biphenyl]-4-yl)acetamide]"
0.3 to 30,0.01 to 1,–,–,"Cn1ccn(-c2ccc(-c3cc(F)cc(-c4ccnc(N5CCN[C@H](CC(N)=O)C5)c4)c3O)cc2Cl)c1=O [Example 644, (R)-2-(4-(4-(3′-chloro-5-fluoro-2-hydroxy-4′-(3-methyl-2-oxo-2,3-dihydro-1H-imidazol-1-yl)-[1,1′-biphenyl]-3-yl)pyridin-2-yl)piperazin-2-yl)acetamide]"
0.3 to 30,0.01 to 1,–,–,"Cn1ccn(-c2ccc(-c3cc(F)cc(-c4cc(N5CCNCC5)c5nccnc5c4)c3O)cc2Cl)c1=O [Example 547, 1-(3-chloro-5′-fluoro-2′-hydroxy-3′-(8-(piperazin-1-yl)quinoxalin-6-yl)-[1,1′-biphenyl]-4-yl)-^3-methyl-1H-imidazol-2(3H)-one]"
–,–,30 to 300,1 to 10,"Cc1cc(-c2ccc(-n3ccn(C)c3=O)c(Cl)c2)c(O)c(-c2ccnc(N3CC(F)(F)[C@@](C)(O)C3)c2)n1 [Example 1036, (S)-1-(2-chloro-4-(2′-(3,3-difluoro-4-hydroxy-4-methylpyrrolidin-1-yl)-3-hydroxy-6-methyl-[2,4′-bipyridin]-4-yl)phenyl)-3-methyl-1,3-dihydro-2H-imidazol-2-one]"
30 to 300,1 to 10,–,–,"CN1CCN(c2ccc(-c3cc(F)cc(-c4cnc(-c5ccn[nH]5)c(N5CCNCC5)c4)c3O)cc2Cl)C1=O [Example 391, 1-(3-chloro-5′-fluoro-2′-hydroxy-3′-(5-(piperazin-1-yl)-6-(1H-pyrazol-5-yl)pyridin-3-yl)-[1,1′-biphenyl]-4-yl)-3-methylimidazolidin-2-one]"
0.3 to 30,1 to 10,–,–,"Cn1ccn(-c2ccc(-c3cc(F)cc(-c4cnc(OC(F)F)c(N5CCN(C(C)(C)C)CC5)c4)c3O)cc2Cl)c1=O [Example 823, 1-(3′-(5-(4-(tert-butyl)piperazin-1-yl)-6-(difluoromethoxy)pyridin-3-yl)-3-chloro-5′-fluoro-2′-hydroxy-[1,1′-biphenyl]-4-yl)-3-methyl-1H-imidazol-2(3H)-one]"
0.3 to 30,1 to 10,–,–,Cn1ccn(-c2ccc(-c3cc(F)cc(-c4ccnc(N5CCC(C)(N)CC5)c4)c3O)cc2Cl)c1=O [Example 778]
0.3 to 30,1 to 10,–,–,"CN1CCN(c2ccc(-c3cc(F)cc(-c4cnc(Cl)c(N5CCNCC5)c4)c3O)cc2Cl)C1=O [Example 407, 1-(3-chloro-3′-(6-chloro-5-(piperazin-1-yl)pyridin-3-yl)-5′-fluoro-2′-hydroxy-[1,1′-biphenyl]-4-yl)-3-methylimidazolidin-2-one]"
0.3 to 30,0.01 to 1,–,–,Cn1ccn(-c2ccc(-c3cc(F)cc(-c4ccnc(N5CC6(CC6)[C@](C)(O)C5)c4)c3O)cc2Cl)c1=O [Example 815]
30 to 300,1 to 10,–,–,"COC(=O)CC1CN(c2cc(-c3cc(F)cc(-c4ccc(-n5ccn(C)c5=O)c(Cl)c4)c3O)ccn2)CCN1 (stereo not drawn) [Example 679, methyl 2-(4-(4-(3′-chloro-5-fluoro-2-hydroxy-4′-(3-methyl-2-oxo-2,3-dihydro-1H-imidazol-1-yl)-[1,1′-biphenyl]-3-yl)pyridin-2-yl)piperazin-2-yl)acetate]"

Structure (SMILES),"GI50 [1, 3] [nM]","IC50 [2, 4] [nM]","GI50 [1, 5] [nM]","IC50 [2, 6] [nM]"
"Cn1ccn(-c2ccc(-c3cc(F)cc(-c4cc(N5CC6CCC(C5)N6)c5cnn(C)c5c4)c3O)cc2Cl)c1=O [Example 607, 1-(3′-(4-(3,8-diazabicyclo[3.2.1]octan-3-yl)-1-methyl-1H-indazol-6-yl)-3-chloro-5′-fluoro-2′-hydroxy-[1,1′-biphenyl]-4-yl)-3-methyl-1H-imidazol-2(3H)-one]",0.3 to 30,0.01 to 1,–,–
